pIC50: −log10 of the molar value. Calls of active or inactive are those of the source. No cut-off for these calls is given here.
What was measured:
[1] = molecular target: T1, Progesterone receptor (Homo sapiens, UniProt P06401); assay: Antagonist activity at human progesterone receptor in T47D cells after 24 hrs by alkaline phosphatase assay; type: functional, cell-based
T1 sequence (P06401 whole entry): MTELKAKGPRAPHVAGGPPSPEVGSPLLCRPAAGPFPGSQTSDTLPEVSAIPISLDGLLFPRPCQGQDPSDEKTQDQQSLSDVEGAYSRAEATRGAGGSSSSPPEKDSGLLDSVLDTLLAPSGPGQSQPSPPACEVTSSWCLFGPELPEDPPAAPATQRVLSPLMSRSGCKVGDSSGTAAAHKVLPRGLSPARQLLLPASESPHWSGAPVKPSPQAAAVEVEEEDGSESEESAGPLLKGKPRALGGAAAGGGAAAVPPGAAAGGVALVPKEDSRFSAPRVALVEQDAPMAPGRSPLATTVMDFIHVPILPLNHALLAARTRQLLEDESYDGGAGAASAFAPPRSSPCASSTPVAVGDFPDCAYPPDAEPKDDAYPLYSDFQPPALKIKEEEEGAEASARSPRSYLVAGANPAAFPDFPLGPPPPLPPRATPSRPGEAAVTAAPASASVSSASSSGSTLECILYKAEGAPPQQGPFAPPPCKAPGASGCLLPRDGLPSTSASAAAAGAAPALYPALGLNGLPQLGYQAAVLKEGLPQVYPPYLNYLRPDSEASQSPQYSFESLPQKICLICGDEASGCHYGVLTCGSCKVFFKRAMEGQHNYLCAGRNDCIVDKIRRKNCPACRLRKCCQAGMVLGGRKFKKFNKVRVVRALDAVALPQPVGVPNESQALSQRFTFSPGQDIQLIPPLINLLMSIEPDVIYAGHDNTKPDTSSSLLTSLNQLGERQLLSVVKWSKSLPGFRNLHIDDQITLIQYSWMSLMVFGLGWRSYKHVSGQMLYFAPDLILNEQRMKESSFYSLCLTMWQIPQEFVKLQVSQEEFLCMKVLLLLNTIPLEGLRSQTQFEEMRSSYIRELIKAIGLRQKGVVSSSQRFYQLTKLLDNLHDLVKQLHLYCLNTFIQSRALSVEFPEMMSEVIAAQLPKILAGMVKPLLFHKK

[2] = molecular target: T1, Progesterone receptor; assay: Displacement of [1,2,6,7-3H]PG from human PR-LBD after 24 hrs by liquid scintillation counting
[3] = molecular target: T2, Progesterone receptor (Homo sapiens) (UniProt P06401); assay: Antagonist activity at human progesterone receptor expressed in CHO cells at 10^-7 M after 24 hrs by luciferase reporter gene assay; type: functional, cell-based
T2 sequence (whole entry): T1 sequence (P06401 whole entry)

[4] = molecular target: T2, Progesterone receptor (Homo sapiens); assay: Antagonist activity at human progesterone receptor expressed in CHO cells at 10^-5 M after 24 hrs by luciferase reporter gene assay; type: functional, cell-based
[5] = molecular target: T2, Progesterone receptor (Homo sapiens); assay: Antagonist activity at human progesterone receptor expressed in CHO cells at 10^-6 M after 24 hrs by luciferase reporter gene assay; type: functional, cell-based
[6] = molecular target: T3, Androgen receptor (Homo sapiens, UniProt P10275); assay: Displacement of [3H]DHT from human recombinant androgen receptor-LBD expressed in Escherichia coli after 18 hrs by liquid scintillation counting
T3 sequence (P10275 whole entry): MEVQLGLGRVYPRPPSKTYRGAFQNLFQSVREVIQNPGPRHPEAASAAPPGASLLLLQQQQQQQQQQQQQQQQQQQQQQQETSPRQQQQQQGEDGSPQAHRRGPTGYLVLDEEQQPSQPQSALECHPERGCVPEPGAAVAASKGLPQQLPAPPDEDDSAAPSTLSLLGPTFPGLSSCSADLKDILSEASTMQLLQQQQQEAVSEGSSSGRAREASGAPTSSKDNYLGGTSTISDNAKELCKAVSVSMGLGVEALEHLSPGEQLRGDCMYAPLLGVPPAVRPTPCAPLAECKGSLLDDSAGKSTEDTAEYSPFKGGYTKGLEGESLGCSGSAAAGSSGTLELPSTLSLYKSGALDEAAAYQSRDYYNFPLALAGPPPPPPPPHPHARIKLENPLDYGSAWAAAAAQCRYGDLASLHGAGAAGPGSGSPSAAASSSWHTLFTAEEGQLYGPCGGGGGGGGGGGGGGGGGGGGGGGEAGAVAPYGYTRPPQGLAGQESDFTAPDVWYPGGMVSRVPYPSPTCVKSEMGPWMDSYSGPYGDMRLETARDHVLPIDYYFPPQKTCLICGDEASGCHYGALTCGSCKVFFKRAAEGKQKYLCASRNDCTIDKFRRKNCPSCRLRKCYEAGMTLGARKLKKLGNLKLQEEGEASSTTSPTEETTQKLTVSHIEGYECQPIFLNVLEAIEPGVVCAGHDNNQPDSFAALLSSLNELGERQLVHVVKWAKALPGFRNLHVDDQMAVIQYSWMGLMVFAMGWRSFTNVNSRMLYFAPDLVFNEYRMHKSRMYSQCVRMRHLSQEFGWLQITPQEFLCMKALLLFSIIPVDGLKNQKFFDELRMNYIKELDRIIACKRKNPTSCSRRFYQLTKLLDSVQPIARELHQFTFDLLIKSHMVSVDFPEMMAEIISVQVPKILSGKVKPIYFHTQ

[7] = molecular target: T4, Glucocorticoid receptor (Homo sapiens, UniProt P04150); assay: Displacement of [3H]-dexamethasone from human recombinant glucocorticoid receptor after 18 hrs by liquid scintillation counting
T4 sequence (P04150 whole entry): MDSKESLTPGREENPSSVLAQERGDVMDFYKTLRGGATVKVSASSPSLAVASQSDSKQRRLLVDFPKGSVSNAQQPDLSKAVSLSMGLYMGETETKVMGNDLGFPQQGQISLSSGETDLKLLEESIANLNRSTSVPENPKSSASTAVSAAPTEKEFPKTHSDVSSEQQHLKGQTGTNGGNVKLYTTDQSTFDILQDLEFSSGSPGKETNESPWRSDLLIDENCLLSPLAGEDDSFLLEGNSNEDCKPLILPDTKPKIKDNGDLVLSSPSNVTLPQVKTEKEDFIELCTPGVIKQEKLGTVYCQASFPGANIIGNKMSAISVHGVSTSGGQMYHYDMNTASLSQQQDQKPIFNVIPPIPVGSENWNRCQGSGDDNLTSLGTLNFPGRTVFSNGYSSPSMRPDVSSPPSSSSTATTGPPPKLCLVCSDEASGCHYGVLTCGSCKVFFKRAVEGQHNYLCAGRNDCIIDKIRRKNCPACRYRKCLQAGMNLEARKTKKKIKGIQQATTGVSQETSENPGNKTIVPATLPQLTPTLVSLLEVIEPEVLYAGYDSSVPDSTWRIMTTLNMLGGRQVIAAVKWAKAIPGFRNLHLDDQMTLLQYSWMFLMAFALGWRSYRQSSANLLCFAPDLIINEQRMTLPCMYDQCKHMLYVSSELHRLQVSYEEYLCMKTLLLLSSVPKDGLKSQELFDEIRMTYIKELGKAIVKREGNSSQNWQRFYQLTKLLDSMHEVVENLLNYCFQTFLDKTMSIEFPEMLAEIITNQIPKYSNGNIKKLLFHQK

[8] = molecular target: T2, Progesterone receptor (Homo sapiens); assay: Binding affinity to human PR LBD by fluorescence assay
[9] = molecular target: T2, Progesterone receptor (Homo sapiens); assay: Binding affinity to human PR LBD by fluorescence assay in presence of progesterone
[10] = molecular target: T5, Estrogen receptor (Homo sapiens) (UniProt P03372); assay: Binding affinity at human estrogen receptor by fluorescence assay
T5 sequence (whole entry): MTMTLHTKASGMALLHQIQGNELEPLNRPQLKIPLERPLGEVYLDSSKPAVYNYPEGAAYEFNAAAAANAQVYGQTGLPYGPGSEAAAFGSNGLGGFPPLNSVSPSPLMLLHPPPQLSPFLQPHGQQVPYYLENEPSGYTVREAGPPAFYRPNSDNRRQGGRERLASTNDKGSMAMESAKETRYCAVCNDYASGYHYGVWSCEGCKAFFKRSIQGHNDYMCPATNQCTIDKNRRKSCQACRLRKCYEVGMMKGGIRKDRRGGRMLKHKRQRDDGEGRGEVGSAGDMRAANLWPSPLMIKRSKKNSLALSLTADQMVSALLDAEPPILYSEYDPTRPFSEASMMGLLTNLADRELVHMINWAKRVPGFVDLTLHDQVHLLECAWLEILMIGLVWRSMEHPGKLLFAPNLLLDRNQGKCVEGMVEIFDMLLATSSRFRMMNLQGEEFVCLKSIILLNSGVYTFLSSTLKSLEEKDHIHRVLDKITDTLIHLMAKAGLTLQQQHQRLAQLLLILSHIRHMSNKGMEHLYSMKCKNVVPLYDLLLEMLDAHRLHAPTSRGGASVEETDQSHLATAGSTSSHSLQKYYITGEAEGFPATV

Row | Structure (SMILES) | pIC50 [1] | other results
1 | N#Cc1cccc(-c2ccc3oc(=O)ccc3c2)c1 | 5.95 | –
2 | CCN(CC)c1cc2oc(=O)ccc2cc1-c1ccc(N)c([N+](=O)[O-])c1 | 6.29 | –
3 | CCN(CC)c1cc2oc(=O)ccc2cc1-c1ccc(C#N)cc1 | 6.30 | –
4 | CCN(CC)c1cc2oc(=O)ccc2cc1-c1cccc(C#N)c1 | 6.42 | –
5 | CCN(CC)c1cc2oc(=O)ccc2cc1-c1ccc([N+](=O)[O-])cc1 | 6.07 | –
6 | CCN(CC)c1cc2oc(=O)ccc2cc1-c1ccc(NC(C)=O)cc1 | 6.33 | –
7 | COc1cc2oc(=O)ccc2cc1-c1ccc(N(C)C)cc1 | 5.48 | –
8 | O=c1ccc2cc(-c3cc(F)cc(F)c3)ccc2o1 | 6.25 | –
9 | CCN(CC)c1cc2oc(=O)ccc2cc1-c1ccc(N(C)C)cc1 | 6.41 | –
10 | CCOC(=O)c1cc2cc(-c3ccccc3)c(N(CC)CC)cc2oc1=O | 5.39 | –
11 | CN(C)c1ccc(-c2cc3ccc(=O)oc3cc2O)cc1 | 5.59 | –
12 | O=c1ccc2cc(-c3ccccc3)c(O)cc2o1 | 5.89 | –
13 | O=c1ccc2cc(-c3cccs3)ccc2o1 | 6.27 | pIC50 [2]: 5.00; Activity [3]: Active; Activity [4]: Active; Activity [5]: Active
14 | CCN(CC)c1cc2oc(=O)ccc2cc1-c1ccc(Cl)cc1 | 6.11 | –
15 | CCN(CC)c1cc2oc(=O)ccc2cc1-c1ccc(F)cc1 | 6.20 | –
16 | CCN(CC)c1cc2oc(=O)ccc2cc1-c1ccc(C(C)=O)cc1 | 6.40 | –
17 | CN(C)c1cc2oc(=O)ccc2cc1-c1ccc(F)cc1 | 6.33 | –
18 | O=c1ccc2cc(-c3cccc(-c4cccnc4)c3)ccc2o1 | 4.55 | –
19 | CCN(CC)c1cc2oc(=O)ccc2cc1-c1ccccc1 | 6.30 | Activity [8]: Active; pIC50 [2]: 5.85; Activity [3]: Active; Activity [9]: inactive; Activity [4]: Active; pIC50 [6]: 5.00; pIC50 [7]: 5.45; Activity [10]: inactive; Activity [5]: Active
20 | O=c1ccc2cc(-c3ccco3)ccc2o1 | 5.89 | –
21 | COc1cc2oc(=O)ccc2cc1-c1ccccc1 | 6.06 | –
22 | O=c1ccc2cc(-c3ccccc3)ccc2o1 | 6.29 | –

These reach a higher pIC50 [1]. Values come first.

Row | pIC50 [1] | Structure (SMILES) | other results
23 | 6.44 | CN(C)c1cc2oc(=O)ccc2cc1-c1ccccc1 | –
24 | 6.51 | CN(C)c1ccc(-c2ccc3oc(=O)ccc3c2)cc1 | –
25 | 6.54 | N#Cc1ccc(-c2ccc3oc(=O)ccc3c2)cc1 | –
26 | 6.59 | CN(C)c1cc2oc(=O)ccc2cc1-c1cccc(C#N)c1 | –
27 | 6.60 | CN(C)c1cc2oc(=O)ccc2cc1-c1ccc(C#N)cc1 | –
28 | 6.66 | CCN(CC)c1cc2oc(=O)ccc2cc1-c1cccs1 | pIC50 [2]: 5.91; Activity [3]: Active; Activity [4]: Active; pIC50 [6]: 5.01; pIC50 [7]: 5.30; Activity [5]: Active
29 | 6.68 | O=c1ccc2cc(-c3ccc(F)cc3)ccc2o1 | –
30 | 6.72 | O=c1ccc2cc(-c3cccc(C(F)(F)F)c3)ccc2o1 | –
31 | 6.92 | O=c1ccc2cc(-c3ccc(Cl)s3)ccc2o1 | pIC50 [2]: 4.30; Activity [3]: Active; Activity [4]: Active; Activity [5]: Active
32 | 7.19 | Cn1c(C#N)ccc1-c1ccc2oc(=O)ccc2c1 | pIC50 [2]: 4.82; Activity [3]: Active; Activity [4]: Active; Activity [5]: Active

From ChEMBL document CHEMBL1833942, “6-arylcoumarins as novel nonsteroidal type progesterone antagonists: an example with receptor-binding-dependent fluorescence” (J Med Chem, 2011)
